The record followed here is PubChem BioAssay AID504510 (The Scripps Research Institute Molecular Screening Center, 2011).

Calls of active or inactive are those of the source. The rule behind the calls is not given here.

A short description of the experiment: cytotoxicity in cultured cells, late-stage follow-up, cytotoxicity control for LYPLA1 inhibitor project, cell-based, absorbance, serum-free and serum media, set 2 (AID 504510). Particulars: cell viability, serum-free vs serum media.

In general, CC50 refers to the concentration that lowers cell viability or growth by half. With `COCC1CCCCN1C(=O)n1ncc(C(O)(c2ccccc2)c2ccccc2)n1` (centres undefined), the CC50 is > 50 µM (inactive) (serum-free media) and > 50 µM (inactive) (with FCS).

`CCC1CCCCN1C(=O)n1ncc(C(O)(c2ccccc2)c2ccccc2)n1` (centres undefined): the CC50 is, setting by setting: (serum-free media) > 50 µM (inactive); (with FCS) > 50 µM (inactive).
